Measurements reported in article PMC12867150, “A fungi-derived cyclic peptide enhances Th9-mediated antitumor immunity by targeting ZAP70 and SREBP1” (The Journal of Clinical Investigation, 2025).

Legend:
B16-OVA melanoma = experiment: Adoptive transfer of OT-II Th9 cells with anti-PD-1, B16-OVA tumor growth (Figure 2I); assay type: in vivo, C57BL/6 mice; conditions: EpA-Th9 cells with anti-PD-1; result in words
Description: (A) Schematic of the therapeutic model. C57BL/6 mice were subcutaneously inoculated with B16-OVA melanoma cells (5 × 10^5) and preconditioned with cyclophosphamide (CTX) on day 4. […] (B–G) Flow-cytometric analysis of transferred CD45.1^+ OT-II Th9 cells (B and C) and endogenous CD4^+ (D and E) and CD8^+ T cells (F and G) in spleens and tumors, showing frequencies and absolute numbers (n = 4 mice per group). (H) Tumor growth curves in B16-OVA–bearing C57BL/6 or β2-microglobulin–deficient (β2m-KO) mice following transfer of control or EpA-treated OT-II Th9 cells (n = 4 mice per group). (I) C57BL/6 mice bearing B16-OVA tumors were treated with control or EpA-induced OT-II Th9 cells (2 × 10^6, i.v., day 5), followed by anti–PD-1 antibody (200 μg, i.p.) on day 7, and (100 μg, i.p.) on day 10 and 12. Tumor growth is shown with individual trajectories (n = 6 mice per group). Statistical analysis was performed using 2-tailed unpaired Student’s t test ([…], B–G) or 1-way ANOVA with Tukey’s post hoc test (H and I). All data are presented as the mean ± SEM. *P < 0.05, **P < 0.01, ***P < 0.001. Schematic in A created using BioRender (https://Biorender.com).
Finally, we examined whether the CD8^+ T cell–supporting capacity of EpA-Th9 cells could synergize with immune checkpoint blockade (ICB) therapy. […]

gene sets in Th9 cells = experiment: GSEA / pathway enrichment of RNA-seq data; assay type: cell-based, mouse; conditions: result in words
Method: GSEA was performed using the clusterProfiler R package (v4.12.6), with curated gene sets obtained from the Gene Ontology and Kyoto Encyclopedia of Genes and Genomes databases. Enrichment plots were generated using the GseaVis R package (v0.1.0) to facilitate data visualization.

Raji-luciferase tumor = experiment: Raji-luciferase xenograft, bioluminescence tumor radiance (Figure 8J-K); assay type: in vivo, NSG mice; conditions: EpA-treated human Th9 CAR T cells 2 × 10^6 i.v.; n = 5; result in words
Description: Representative plots (A) and quantification (B) (n = 4). (C) Quantitative PCR analysis of IL9, IRF4, and SPI1 mRNA expression in human Th9 cells (n = 3). (D) Flow-cytometric analysis of mitochondrial membrane potential in human Th9 cells (n = 3). (E) Luciferase-based assay analysis of intracellular ATP levels in human Th9 cells (n = 5). (F) Flow-cytometric analysis of phosphorylated ZAP70 in human Th9 cells (n = 3). (G) Flow-cytometric analysis of TNF-α expression in human Th9 cells (n = 4). (H) Cytotoxicity assay of EpA-treated or control CD19 CAR Th9 cells against Raji lymphoma target cells at indicated effector-to-target (E/T) ratios (n = 3). (I) Schematic diagram of the in vivo Raji-luciferase xenograft model in NSG mice receiving control or EpA-treated human Th9 CAR T cells. (J and K) Representative bioluminescence imaging (J) and quantification of tumor radiance (K) in NSG mice at indicated time points after adoptive transfer. […] Statistical significance was determined using 2-tailed unpaired Student’s t test (B–H), 2-way ANOVA followed by Šidák’s post hoc test (K), and log-rank test (L). […]
For xenograft models, M-NSG mice were intravenously inoculated with 1 × 10^6 Raji-CD19 tumor cells. […] Tumor progression and immune cell infiltration were subsequently monitored according to experimental endpoints.

anteiso-C15 Leu7 surfactin [EpA]
response to PD-1 blockade (B16-OVA melanoma): significantly enhanced the therapeutic response to PD-1 blockade | glycolytic and carbon metabolism pathways (gene sets in Th9 cells): significant enrichment | lipid-related pathways (gene sets in Th9 cells): markedly downregulated | oxidative phosphorylation-related gene sets (gene sets in Th9 cells): upregulation | tumor burden (Raji-luciferase tumor): markedly reduced tumor burden
